Source: article PMC10206591, “Identification of small molecules capable of enhancing viral membrane fusion” (Virology Journal, 2023)
Values joined by “and” are separate entries in the source; they are usually repeats but may differ in a detail not shown here. Equal entries are not always repeated.

How the values were obtained:
[1] = Cell viability, Cell-Titer Glo (ATP levels), Hek 293T; assay type: cell-based; details: human; for CC50 / CC90: 48 h
Procedure: (§1) The toxicity of the compounds was evaluated with Cell-Titer Glo (Promega) following the manufacturer’s indications. Briefly, cells were seeded (~ 1 × 10^4 cells/plate) in an opaque white 96-well plate and treated with the appropriate compound at the indicated concentration for 48 h. Next, 100 µl of CellTiter-Glo® reagent was added and let the luminescence signal stabilizes for 10 min. The luminescence was recorded on a VictorX multi-plate reader (Perking Elmer, Waltham, MA, USA).
(§2) Fig. 6 Toxicity of hit compounds. A, B The toxicity in Hek 293T and Vero E6 cells (A and B, respectively) was analyzed after incubating the compounds at the indicated concentration for 48 h. Toxicity was analyzed by measuring ATP levels using the Cell-Titer Glo assay (Promega) following the manufacturer’s indications. Dots represent the average of at least three independent experiments. C The CC10, CC50, and CC90 values were calculated with the data shown in panels A and B TEXT PRINTED IN THE PICTURE: (C) Latanoprost: Hek293T CC10 (μM): 16.2; Hek293T CC50 (μM): 63.9; Hek293T CC90 (μM): 270; Vero E6 CC10 (μM): 76.9; Vero E6 CC50 (μM): 124; Vero E6 CC90 (μM): 171 | (C) Diperodon: Hek293T CC10 (μM): 14.2; Hek293T CC50 (μM): 41; Hek293T CC90 (μM): 98.3; Vero E6 CC10 (μM): 24; Vero E6 CC50 (μM): 88; Vero E6 CC90 (μM): 153 | (C) Ethynylestradiol: Hek293T CC10 (μM): 11.8; Hek293T CC50 (μM): 49.9; Hek293T CC90 (μM): 169.9; Vero E6 CC10 (μM): 13.6; Vero E6 CC50 (μM): 96.6; Vero E6 CC90 (μM): 224 | (C) Simvastatin: Hek293T CC10 (μM): 8.0; Hek293T CC50 (μM): 34.2; Hek293T CC90 (μM): 125.8; Vero E6 CC10 (μM): 3.11; Vero E6 CC50 (μM): 6.02; Vero E6 CC90 (μM): 61.2 | (C) Rabeprazol: Hek293T CC10 (μM): 14.3; Hek293T CC50 (μM): 38.1; Hek293T CC90 (μM): 83.6; Vero E6 CC10 (μM): 51.6; Vero E6 CC50 (μM): 122.8; Vero E6 CC90 (μM): 194 | (C) Ethaverine: Hek293T CC10 (μM): 9.7; Hek293T CC50 (μM): 43.8; Hek293T CC90 (μM): 120.7; Vero E6 CC10 (μM): 45; Vero E6 CC50 (μM): 119.8; Vero E6 CC90 (μM): 194.7

[2] = test system: Hek 293T cells; experiment: as above; assay type: cell-based; details: 48 h, Fig. 6C
Procedure: as §1, §2

[3] = test system: SARS-CoV-2 S-mediated membrane fusion
[4] = Cell viability, Cell-Titer Glo (ATP levels), Vero E6; assay type: cell-based; details: African green monkey, Fig. 6C; for CC50 / CC90: 48 h
Procedure: as §1, §2

[5] = test system: Vero E6 cells; experiment: as above; assay type: cell-based; details: 48 h, Fig. 6C
Procedure: as §1, §2

[6] = test system: SARS-CoV-2 S-mediated membrane fusion in the presence of TMPRSS2
[7] = test system: SARS-CoV-2; assay type: cell-based
[8] = test system: Nipah virus membrane fusion; assay type: cell-based; details: Hek 293T, NiV F and G, 48 h
[9] = test system: IAV/WSN/33; assay type: cell-based, Influenza A virus
[10] = test system: Hek 293T cells; experiment: Cell viability, Cell-Titer Glo (ATP levels), Hek 293T; assay type: cell-based; details: Hek 293T transfected with TMPRSS2 or eYFP, Fig. S2
[11] = Table 1, Hek 293T, read-out: CC50
[12] = Fig. 6C, read-out: Hek293T CC50
[13] = Fig. 6C, read-out: Hek293T CC90

Molecule	CC50 [1, 11] [µM]	CC50 [1, 12] [µM]	CC90 [1, 13] [µM]	Hek293T CC10 [2] [µM]	Activity index (Fusion % at CC50/CC50), NO TMPRSS2 [3]	Fusion % at CC50, NO TMPRSS2 [3]	CC50 [4] [µM]	CC90 [4] [µM]	Vero E6 CC10 [5] [µM]	Activity index (Fusion % at CC50/CC50), TMPRSS2 [6]	Fusion % at CC50, TMPRSS2 [6]	Z-score [3]	further results
O=C(Nc1ccccc1)OCC(CN1CCCCC1)OC(=O)Nc1ccccc1 (stereo not shown) [Diperodon]	41	41	98.3	14.2	3,03	123,98%	88	153	24	3,39	138,77%	–	–
CCOc1ccc(Cc2nccc3cc(OCC)c(OCC)cc23)cc1OCC [Ethaverine]	43.8	43.8	121	9.7	2,86	125,39%	120	195	45	9,56	419,22%	–	effect on SARS-CoV-2 viral titers (in words) [7]: did not increase or accelerate the growth; effect on NiV-induced membrane fusion (in words) [8]: enhance viral-mediated membrane fusion in a mild dose-dependent manner; effect on IAV titers (in words) [9]: did not increase viral titers
C#C[C@]1(O)CC[C@H]2[C@@H]3CCc4cc(O)ccc4[C@H]3CC[C@@]21C [Ethynylestradiol]	49.9	49.9	170	11.8	3,25	162,00%	96.6	224	13.6	6,27	312,60%	–	SARS-CoV-2 titer, Average [7]: 2.6x10^6 pfu/mL and 3.6x10^6 pfu/mL and 5.0x10^6 pfu/mL; effect on SARS-CoV-2 viral titers (in words) [7]: increased viral titers; effect on NiV-induced membrane fusion (in words) [8]: enhance viral-mediated membrane fusion in a mild dose-dependent manner; toxicity in the presence of TMPRSS2 (in words) [10]: compound toxicity was not affected by the presence of the cellular protease; increase in viral-induced membrane fusion (in words) [3]: stronger inducers; effect on IAV titers (in words) [9]: increases IAV titers by approximately one log
CC(C)OC(=O)CCC/C=C\C[C@@H]1[C@@H](CC[C@@H](O)CCc2ccccc2)[C@H](O)C[C@@H]1O [Latanoprost]	63.9	63.9	270	16.2	1,11	70,98%	124	171	76.9	2,39	152,75%	–	increase in viral-induced membrane fusion (in words) [3]: stronger inducers
COCCCOc1ccnc(C[S+]([O-])c2nc3ccccc3[nH]2)c1C (stereo not shown) [Rabeprazol]	38.1	38.1	83.6	14.3	4,70	179,16%	123	194	51.6	6,39	243,51%	–	SARS-CoV-2 titer, Average [7]: 3.2x10^6 pfu/mL and 4.2x10^6 pfu/mL and 6.1x10^6 pfu/mL; effect on SARS-CoV-2 viral titers (in words) [7]: increased viral titers; effect on NiV-induced membrane fusion (in words) [8]: enhance viral-mediated membrane fusion in a mild dose-dependent manner; effect on IAV titers (in words) [9]: did not increase viral titers
CCC(C)(C)C(=O)O[C@H]1C[C@@H](C)C=C2C=C[C@H](C)[C@H](CC[C@@H]3C[C@@H](O)CC(=O)O3)[C@H]21 [Simvastatin]	–	–	–	8.0	5,03	172,00%	–	–	3.11	4,79	163,57%	1,72	CC50 at 48 h [1, 12]: 34.2 µM; CC90 at 48 h [1, 13]: 126 µM; CC50 at 48 h [1, 11]: 34.2 µM; increase in viral-induced membrane fusion (in words) [3]: stronger inducers; CC50 at 48 h [4]: ~6 µM; CC90 at 48 h [4]: 61.2 µM; CC50 [5]: 6.02 µM
C=C(NC(=O)C(=C)NC(=O)c1csc(C2=N[C@@H]3c4csc(n4)[C@H]4NC(=O)c5csc(n5)[C@H]([C@](C)(O)[C@@H](C)O)NC(=O)[C@H]5CSC(=N5)/C(=C/C)NC(=O)[C@H]([C@@H](C)O)NC(=O)c5csc(n5)[C@]3(CC2)NC(=O)[C@H](C)NC(=O)C(=C)NC(=O)[C@H](C)NC(=O)[C@H]([C@@H](C)CC)N[C@@H]2C=Cc3c([C@H](C)O)cc(nc3[C@H]2O)C(=O)O[C@@H]4C)n1)C(N)=O [Thiostrepton]	–	–	–	–	–	–	–	–	–	–	–	5,52	–
O=C(O)Cc1cc(I)c(Oc2ccc(O)c(I)c2)c(I)c1 [Tiratricol, 3,3',5-triiodothyroacetic acid]	–	–	–	–	–	–	–	–	–	–	–	4,40	–
Cl.NC1CCN(c2nc3c(cc2F)c(=O)c(C(=O)O)cn3-c2ccc(F)cc2F)C1 (stereo not shown) [Tosufloxacin hydrochloride]	–	–	–	–	–	–	–	–	–	–	–	1,77	–
O=C(CCCCCCC(=O)Nc1ccccc1)NO [Vorinostat]	–	–	–	–	–	–	–	–	–	–	–	4,62	–
CCCOc1ccccc1-c1nc2nn[nH]c2c(=O)[nH]1 [Zaprinast]	–	–	–	–	–	–	–	–	–	–	–	1,64	–
O=P(O)(O)C(O)(Cn1ccnc1)P(=O)(O)O [Zoledronic acid hydrate]	–	–	–	–	–	–	–	–	–	–	–	2,27	–
Meclocycline sulfosalicylate	–	–	–	–	–	–	–	–	–	–	–	5,55	–
Tyloxapol	–	–	–	–	–	–	–	–	–	–	–	3,89	–
